In patent publication US20170314074A1, “LPA-ASSOCIATED PROTEIN AND RNA EXPRESSION” (Intermune, Inc., priority 2014, published 2017):

Test system: normal human lung fibroblasts, human bronchial epithelial cells, and human pulmonary alveolar epithelial cells
Experiment: Secreted protein expression after LPA induction, aptamer-based proteomic platform (SomaLogic, 1129 proteins)
Format: cell-based
Conditions: 24 hours
Protocol: Changes in gene expression after 3 hours of LPA induction were profiled on Affymetrix Human Gene ST 2.0 microarrays; differentially expressed genes identified by ANOVA with FDR <0.05 and fold-change >1.2. Process networks associated with differentially expressed genes were defined using MetaCore. Changes in secreted protein expression after 24 hours of LPA induction were profiled on an aptamer-based proteomic platform (1129 proteins); differentially expressed proteins identified by t-test.
Treatment of cells with LPA, isolation supernatant, analysis of secreted protein expression using soma panel was performed as follows: Supernatant was collected from in vitro cultures of normal human lung fibroblasts, human bronchial epithelial cells, and human pulmonary alveolar epithelial cells treated for 24 hours with LPA and/or LPAR1 inhibitor. Each treatment condition was assayed in triplicate. 1129 proteins were profiled using a broad aptamer-based proteomic platform (SomaLogic, Colo., US). Briefly, the technology uses DNA aptamers containing chemically modified nucleotides as highly specific protein binding reagents in a multiplexed assay that transforms the quantity of each targeted protein into a corresponding quantify of the aptamer. Protein quantities are then detected on a microarray platform and recorded as Relative Fluorescence Units (RFU).
In Tables 1-5 The differentially expressed secreted proteins set forth in Tables 1, 2, and 5 and the differentially expressed mRNAs set forth in Table 3 and 4 were identified by visual inspection of individual dot-plots.
For the gene and protein expression analysis primary fibroblasts (NHLF product #CC-2512 from Lonza group LTD) and primary epithelial cells (NHBE Product #CC-2540 from Lonza; HPAEpiC Product #3200 from Sciencell (USA, California)) were cultured as recommended by the manufacturer, except they were cultured on collagen coated plates. As part of the induction protocol cells were starved overnight in low (0.2 or 0.1% serum) or no serum (0%), prior to stimulation with LPA.

lysophosphatidic acid [LPA]
up: effect of LPA, 41 (EPB41) | effect of LPA, ADAM 9 (ADAM9) | effect of LPA, ALCAM (ALCAM) | effect of LPA, ANGL4 (ANGPTL4) | effect of LPA, AREG (AREG) | effect of LPA, ARTS1 (ERAP1) | effect of LPA, ASM3A (SMPDL3A) | effect of LPA, Activin A (INHBA) | effect of LPA, Aminoacylase-1 (ACY1) | effect of LPA, Angiogenin (ANG) | effect of LPA, Angiopoietin-1 (ANGPT1) | effect of LPA, B7-H1 (CD274) | effect of LPA, BASI (BSG) | effect of LPA, BFL1 (BCL2A1) | effect of LPA, BGH3 (TGFBI) | effect of LPA, BGN (BGN) | effect of LPA, BSSP4 (PRSS22) | effect of LPA, Bone proteoglycan II (DCN) | effect of LPA, CAPG (CAPG) | effect of LPA, CATZ (CTSZ) | effect of LPA, CK2-A1:B (CSNK2A1 CSNK2B) | effect of LPA, COMMD7 (COMMD7) | effect of LPA, CRDL1 (CHRDL1) | effect of LPA, CTAP-III (PPBP) | effect of LPA, Caspase-3 (CASP3) | effect of LPA, Cathepsin A (CTSA) | effect of LPA, Cathepsin H (CTSH) | effect of LPA, Cathepsin S (CTSS) | effect of LPA, Cathepsin V (CTSL2) | effect of LPA, Cofilin-1 (CFL1) | effect of LPA, Cyclophilin A (PPIA) | effect of LPA, Cystatin M (CST6) | effect of LPA, DAF (CD55) | effect of LPA, DBNL (DBNL) | effect of LPA, DKK1 (DKK1) | effect of LPA, DKK3 (DKK3) | effect of LPA, DPP2 (DPP7) | effect of LPA, DcR3 (TNFRSF6B) | effect of LPA, Discoidin domain receptor 2 (DDR2) | effect of LPA, Dkk-4 (DKK4) | effect of LPA, EMR2 (EMR2) | effect of LPA, ENA-78 (CXCL5) | effect of LPA, EPHA3 (EPHA3) | effect of LPA, EPI (EREG) | effect of LPA, Elafin (PI3) | effect of LPA, Endocan (ESM1) | effect of LPA, Endothelin-converting enzyme 1 (ECE1) | effect of LPA, Eotaxin (CCL11) | effect of LPA, EphB4 (EPHB4) | effect of LPA, Ephrin-A5 (EFNA5) | effect of LPA, Ephrin-B3 (EFNB3) | effect of LPA, Epithelial cell kinase (EPHA2) | effect of LPA, FGF7 (FGF7) | effect of LPA, FGF-20 (FGF20) | effect of LPA, FST (FST) | effect of LPA, FSTL3 (FSTL3) | effect of LPA, Flt-3 (FLT3) | effect of LPA, G-CSF (CSF3) | effect of LPA, GAPDH liver (GAPDH) | effect of LPA, GCP-2 (CXCL6) | effect of LPA, GREM1 (GREM1) | effect of LPA, GRN (GRN) | effect of LPA, GV (PLA2G5) | effect of LPA, Galectin-3 (LGALS3) | effect of LPA, Gro-a (CXCL1) | effect of LPA, Gro-b/g (CXCL3 CXCL2) | effect of LPA, HGF (HGF) | effect of LPA, IDE (IDE) | effect of LPA, IGF-I sR (IGF1R) | effect of LPA, IGF-II receptor (IGF2R) | effect of LPA, IGFBP-3 (IGFBP3) | effect of LPA, IGFBP-7 (IGFBP7) | effect of LPA, IL-1 R4 (IL1RL1) | effect of LPA, IL-6 (IL6) | effect of LPA, IL-6 sRa (IL6R) | effect of LPA, IL-8 (IL8) | effect of LPA, IL-11 (IL11) | effect of LPA, IL-12 RB2 (IL12RB2) | effect of LPA, IL-17D (IL17D) | effect of LPA, IP-10 (CXCL10) | effect of LPA, JAG1 (JAG1) | effect of LPA, JAG2 (JAG2) | effect of LPA, KPCI (PRKCI) | effect of LPA, LG3BP (LGALS3BP) | effect of LPA, LGMN (LGMN) | effect of LPA, LRIG3 (LRIG3) | effect of LPA, Layilin (LAYN) | effect of LPA, MCP-1 (CCL2) | effect of LPA, MCP-3 (CCL7) | effect of LPA, MICA (MICA) | effect of LPA, MICB (MICB) | effect of LPA, MIP-3a (CCL20) | effect of LPA, MMP-1 (MMP1) | effect of LPA, MMP-3 (MMP3) | effect of LPA, MMP-9 (MMP9) | effect of LPA, MMP-10 (MMP10) | effect of LPA, MMP-12 (MMP12) | effect of LPA, MMP-13 (MMP13) | effect of LPA, MRC2 (MRC2) | effect of LPA, Met (MET) | effect of LPA, Midkine (MDK) | effect of LPA, NAGK (NAGK) | effect of LPA, NAP-2 (PPBP) | effect of LPA, NCAM-L1 (L1CAM) | effect of LPA, NET4 (NTN4) | effect of LPA, NID2 (NID2) | effect of LPA, NKp46 (NCR1) | effect of LPA, NRP1 (NRP1) | effect of LPA, NRX3B (NRXN3) | effect of LPA, NXPH1 (NXPH1) | effect of LPA, Neurotrophin-3 (NTF3) | effect of LPA, Nogo Receptor (RTN4R) | effect of LPA, NovH (NOV) | effect of LPA, OMD (OMD) | effect of LPA, ON (SPARC) | effect of LPA, PAI-1 (SERPINE1) | effect of LPA, PARK7 (PARK7) | effect of LPA, PCSK7 (PCSK7) | effect of LPA, PDGF-AA (PDGFA) | effect of LPA, PDGF-BB (PDGFB) | effect of LPA, PTHrP (PTHLH) | effect of LPA, Protease nexin I (SERPINE2) | effect of LPA, RAC1 (RAC1) | effect of LPA, RANTES (CCL5) | effect of LPA, RAP (LRPAP1) | effect of LPA, RGMB (RGMB) | effect of LPA, ROBO2 (ROBO2) | effect of LPA, SARP-2 (SFRP1) | effect of LPA, SCGF-alpha (CLEC11A) | effect of LPA, SDF-1 (CXCL12) | effect of LPA, SLIK5 (SLITRK5) | effect of LPA, ST4S6 (CHST15) | effect of LPA, Semaphorin 3A (SEMA3A) | effect of LPA, Sphingosine kinase 1 (SPHK1) | effect of LPA, TAJ (TNFRSF19) | effect of LPA, TFPI (TFPI) | effect of LPA, TGF-b R III (TGFBR3) | effect of LPA, TIG2 (RARRES2) | effect of LPA, TIMP-3 (TIMP3) | effect of LPA, TNF sR-I (TNFRSF1A) | effect of LPA, TNF sR-II (TNFRSF1B) | effect of LPA, TNFSF15 (TNFSF15) | effect of LPA, TSG-6 (TNFAIP6) | effect of LPA, TSLP (TSLP) | effect of LPA, TSP2 (THBS2) | effect of LPA, TXD12 (TXNDC12) | effect of LPA, Thrombospondin-1 (THBS1) | effect of LPA, UNC5H3 (UNC5C) | effect of LPA, URB (CCDC80) | effect of LPA, VEGF121 (VEGFA) | effect of LPA, VEGF (VEGFA) | effect of LPA, VEGF-C (VEGFC) | effect of LPA, annexin I (ANXA1) | effect of LPA, discoidin domain receptor 1 (DDR1) | effect of LPA, suPAR (PLAUR) | effect of LPA, uPA (PLAU)
down: effect of LPA, ATS1 (ADAMTS1) | effect of LPA, Angiopoietin-2 (ANGPT2) | effect of LPA, Angiostatin (PLG) | effect of LPA, Apo E2 (APOE) | effect of LPA, Apo E3 (APOE) | effect of LPA, Coagulation Factor Xa (F10) | effect of LPA, DERM (DPT) | effect of LPA, FCAR (FCAR) | effect of LPA, FGF-18 (FGF18) | effect of LPA, GDF-9 (GDF9) | effect of LPA, IGFBP-2 (IGFBP2) | effect of LPA, Spondin-1 (SPON1) | effect of LPA, TWEAK (TNFSF12) | effect of LPA, TrATPase (ACP5) | effect of LPA, WKFN1 (GPRASP2) | effect of LPA, eIF-5A-1 (EIF5A) | effect of LPA, sFRP-3 (FRZB)
